This is an account of results in patent publication US8084484B2, “Vanilloid receptor ligands, pharmaceutical compositions containing them, process for making them, and use thereof for treating pain and other conditions” (Gruenenthal GmbH, priority 2007, dated 2011).

For test [1], the target named is VR1/TRPV1 receptor (Homo sapiens, UniProt Q8NER1). Description: Inhibition of human VR1/TRPV1 following pH-stimulus. The conditions noted are these: for IC50 (Human) following pH-stimulus: ne = no effect, no response observed; for inhibition at 1 µM: compound 1 μM, read-out: IC50 (Human) following pH-stimulus: inhibition (in percent) @ 1 μM; for inhibition at 5 µM: read-out: IC50 (Human) following pH-stimulus: inhibition (in percent) @ 5 μM; for inhibition at 10 µM: compound 10 μM, read-out: IC50 (Human) following pH-stimulus: inhibition (in percent) @ 10 μM. The class given is cell-based.

In test [2] the target is T1, vanilloid receptor (VR1), human VR1 gene (Homo sapiens, UniProt Q8NER1).
T1 construct: expressed in transfected cells; host or cells: CHO K1 cells (ECACC), stably transfected
Briefly: FLIPR Ca2+ influx assay on CHO K1 cells transfected with the VR1 gene, capsaicin stimulus (Pharmacological method II). The note with it: for Ki / Ki (human) Capsaicin: human, Ki by Cheng-Prusoff, ne = no effect, no response observed; for inhibition at 5 µM: CHO-K1, compound 5 μM, read-out: Capsaicin: inhibition (in percent) @ 5 μM; for inhibition at 5 µM / inhibition at 0.1 µM: species column unclear (taken as human); for inhibition at 0.1 µM: CHO-K1, compound 0.1 μM, read-out: Capsaicin: inhibition (in percent) @ 0.1 μM. The class given is cell-based. On the procedure:
In addition, compounds according to the invention of the general formulae I, Ia, Ib, Ic, and Id, may be preferred which in the FLIPR assay with CHO K1 cells, which have been transfected with the human VR1 gene, in a concentration of less than 2000 nM, preferably of less than 1000 nM, particularly preferably of less than 300 nM, very particularly preferably of less than 100 nM, still more preferably of less than 75 nM, further preferably of less than 50 nM and most preferably of less than 10 nM, bring about a 50 percent displacement of capsaicin, which is present in a concentration of 100 nM. In this FLIPR assay, the influx of Ca^2+ is quantified with the assistance of a Ca^2+-sensitive dye (type Fluo-4, Molecular Probes Europe BV, Leiden, Netherlands) in a Fluorescent Imaging Plate Reader (FLIPR, Molecular Devices, Sunnyvale, USA) as described below.
II. Functional Investigations on Vanilloid Receptor (VR1)
The agonistic or antagonistic action of the substances to be investigated on the vanilloid receptor (VR1) may also be determined with the following assay. According to this assay, the influx of Ca^2+ through the channel is quantified with the assistance of a Ca^2+-sensitive dye (type Fluo-4, Molecular Probes Europe BV, Leiden, Netherlands) in a Fluorescent Imaging Plate Reader (FLIPR, Molecular Devices, Sunnyvale, USA).
Chinese hamster ovary cells (CHO K1 cells, European Collection of Cell Cultures (ECACC), Great Britain) are stably transfected with the VR1 gene. For functional investigations, these cells are plated out onto poly-D-lysine-coated, black 96-hole plates with a clear base (BD Biosciences, Heidelberg, Germany) at a density of 25,000 cells/hole. The cells are incubated overnight at 37° C. and 5% CO2 in a culture medium (Ham's Nutrient Mixture F12, 10 vol. % FCS (foetal calf serum), 18 μg/mL L-proline). On the following day, the cells are incubated with Fluo-4 (Fluo-4 2 μM, Pluronic F127 0.01 vol. %, Molecular Probes in HBSS (Hank's buffered saline solution), Gibco Invitrogen GmbH, Karlsruhe, Germany) for 30 minutes at 37° C. The plates are then washed 3 times with HBSS buffer and, after a further 15 minutes' incubation at room temperature, used for Ca^2+ measurement in the FLIPR. Ca^2+-dependent fluorescence is here measured before and after the addition of the substances to be investigated (wavelength λex=488 nm, λem=540 nm).
Quantification proceeds by measuring the highest fluorescence intensity (FC, fluorescence counts) over time.
The FLIPR protocol consists of 2 additions of substance. The substances to be tested (10 μM) are firstly pipetted onto the cells and Ca^2+ influx is compared with the control (capsaicin 10 μM) (% activation relative to the Ca^2+ signal after addition of 10 μM of capsaicin). After 5 minutes' incubation, 100 nM of capsaicin are added and the influx of Ca^2+ is likewise determined.
The percentage inhibition in comparison with the maximum achievable inhibition with 10 μM capsaicin is calculated.
On the basis of the percentage displacement by different concentrations of the compounds to be tested of the general formula I, IC50 inhibition concentrations which bring about 50% displacement of capsaicin were calculated. Ki values for the test substances were obtained by conversion using the Cheng-Prusoff equation (Cheng, Prusoff; Biochem. Pharmacol. 22, 3099-3108, 1973).

T1 sequence (Q8NER1 whole entry): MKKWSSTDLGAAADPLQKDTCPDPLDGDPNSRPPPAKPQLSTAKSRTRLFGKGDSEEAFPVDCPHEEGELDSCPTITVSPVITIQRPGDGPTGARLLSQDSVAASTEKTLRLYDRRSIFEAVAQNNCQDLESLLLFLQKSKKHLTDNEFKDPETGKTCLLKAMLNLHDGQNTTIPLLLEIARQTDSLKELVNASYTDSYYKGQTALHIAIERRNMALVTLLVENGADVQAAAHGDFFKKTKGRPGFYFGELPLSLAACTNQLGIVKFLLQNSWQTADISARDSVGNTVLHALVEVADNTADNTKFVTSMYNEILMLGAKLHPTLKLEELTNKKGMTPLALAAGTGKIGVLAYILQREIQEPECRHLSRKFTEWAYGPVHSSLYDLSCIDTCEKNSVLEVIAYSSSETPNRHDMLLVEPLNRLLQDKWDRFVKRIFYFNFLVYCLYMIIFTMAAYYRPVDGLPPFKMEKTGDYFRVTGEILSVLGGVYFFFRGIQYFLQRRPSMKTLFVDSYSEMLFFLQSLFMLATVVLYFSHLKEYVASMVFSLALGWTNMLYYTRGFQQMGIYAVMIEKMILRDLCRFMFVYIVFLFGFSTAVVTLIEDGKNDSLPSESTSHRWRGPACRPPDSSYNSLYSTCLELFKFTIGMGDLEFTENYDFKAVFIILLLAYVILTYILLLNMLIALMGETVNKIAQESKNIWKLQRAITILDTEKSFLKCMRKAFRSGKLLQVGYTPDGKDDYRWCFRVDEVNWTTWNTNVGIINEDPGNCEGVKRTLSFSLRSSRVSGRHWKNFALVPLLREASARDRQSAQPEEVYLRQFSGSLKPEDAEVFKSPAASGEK
Chain of VR1/TRPV1 receptor (Q8NER1 whole entry): as above

`CC(C(=O)NCc1ccc(C(C)(C)C)cc1)c1ccc2ocnc2c1` (stereo not shown) [Example 1, 2-benzooxazol-5-yl-N-(4-tert.-butyl-benzyl)-propionamide]: the “IC50 (Human) following pH-stimulus” value in test [1] is given as “Ne”. Moreover, the Ki (commonly the dissociation constant of the complex between target and ligand, obtained from inhibition or displacement) in test [2] was 579 nM.
For `COc1cc(C(C)C(=O)NCc2ccc(C(C)(C)C)cc2)cc2ncoc12` (stereo not shown) [Example 7, N-(4-tert.-butyl-benzyl)-2-(7-methoxy-benzooxazolyl-5-yl)-propionamide] the same measures were “Ne” and 2170 nM.
Consider `CC(C(=O)NCc1ccc(C(C)(C)C)cc1)c1ccc2c(c1)OCCO2` (stereo not shown) [Example 9, N-(4-tert.-butyl-benzyl)-2-(2,3-dihydro-benzo[1,4]dioxin-6-yl)-propionamide], for which, in test [1], the “IC50 (Human) following pH-stimulus” value is reported as “Ne”. This compound returned an inhibition constant (Ki) in test [2] of 1080 nM.
With `CC(C(=O)NCc1ccc(C(C)(C)C)cc1)c1ccc2nccnc2c1` (stereo not shown) [Example 11, N-(4-tert.-butyl-benzyl)-2-quinoxalin-6-yl-propionamide], the “Ki (human) Capsaicin” value in test [2] was “ne”.
Take `CC(C(=O)NCc1ccc(C(C)(C)C)cc1)c1ccc2[nH]cnc2c1` (stereo not shown) [Example 14, 2-(1H-benzoimidazol-5-yl)-N-(4-tert.-butyl-benzyl)-propionamide]: the “Ki (human) Capsaicin” value in test [2] is given as “ne”.
As to `CC(C(=O)NCc1ccc(C(C)(C)C)cc1)c1ccc2c(c1)OCCN2` (stereo not shown) [Example 20, N-(4-tert.-butylbenzyl)-2-(3,4-dihydro-2H-benzo[b][1,4]oxazin-7-yl)propionamide], in test [1], the “IC50 (Human) following pH-stimulus” value is given as “Ne”. Besides, the inhibition (usually the percentage by which the read-out fell short of the control) at 5 µM in test [2] turned out to be 9%.
The like results for `CSc1nc2ccc(C(C)C(=O)NCc3ccc(C(C)(C)C)nc3N3CCC(C)CC3)cc2s1` (stereo not shown) [Example 34, N-(6′-tert.-butyl-4-methyl-3,4,5,6-tetrahydro-2H-[1,2′]bipyridinyl-3′-ylmethyl)-2-(2-methylsulfanyl-benzothiazol-6-yl)-propionamide] were, in that order, “Ne” and 38%.
As for `CC1CCN(c2nc(C(F)(F)F)ccc2CNC(=O)C(C)c2ccc3nc(N)sc3c2)CC1` (stereo not shown) [Example 38, 2-(2-aminobenzo[d]thiazol-6-yl)-N-((2-(4-methylpiperidin-1-yl)-6-(trifluoromethyl)pyridin-3-yl)methyl)propanamide], the “IC50 (Human) following pH-stimulus” value in test [1] is recorded as “Ne”. For the same compound, in test [2], the Ki was determined as 28.4 nM.
In the case of `CC1CCN(c2nc(C(F)(F)F)ccc2CNC(=O)C(C)c2ccc3nc(NS(C)(=O)=O)sc3c2)CC1` (stereo not shown) [Example 39, N-((2-(4-methylpiperidin-1-yl)-6-(trifluoromethyl)pyridin-3-yl)methyl)-2-(2-(methylsulfonamido)benzo[d]thiazol-6-yl)propanamide], the “IC50 (Human) following pH-stimulus” value in test [1] is “Ne”. The inhibition at 0.1 µM in test [2] is 0%.
In the case of `CC1CCN(c2nc(C(F)(F)F)ccc2CNC(=O)C(C)c2ccc3nc(NC(=O)OC(C)(C)C)sc3c2)CC1` (stereo not shown) [Example 40, tert.-butyl 6-(1-((2-(4-methylpiperidin-1-yl)-6-(trifluoromethyl)pyridin-3-yl)methylamino)-1-oxopropan-2-yl)benzo[d]thiazol-2-ylcarbamate], in test [1], the inhibition at 1 µM was 0% and the inhibition at 10 µM was found to be 37%. The inhibition at 5 µM in test [1] (compound 5 μM) stood at 21%. Also, in test [2], the inhibition at 0.1 µM was 0% and the inhibition at 5 µM turned out to be 34%.
As to `CC(=O)Nc1nc2ccc(C(C)C(=O)NCc3ccc(C(F)(F)F)nc3N3CCC(C)CC3)cc2s1` (stereo not shown) [Example 41, 2-(2-acetamidobenzo[d]thiazol-6-yl)-N-((2-(4-methylpiperidin-1-yl)-6-(trifluoromethyl)pyridin-3-yl)methyl)propanamide], the “IC50 (Human) following pH-stimulus” value in test [1] is recorded as “Ne”. The inhibition at 0.1 µM in test [2] amounted to 5%.
As for `CC(C(=O)NCc1ccc(C(C)(C)C)cc1)c1ccc2nc(NC(=O)OC(C)(C)C)sc2c1` (stereo not shown) [Example 50, tert.-butyl 6-(1-(4-tert.-butylbenzylamino)-1-oxopropan-2-yl)benzo[d]thiazol-2-ylcarbamate], in test [1], the inhibition at 1 µM was 10% and the inhibition at 10 µM was 53%. Besides, the inhibition at 5 µM in test [1] (compound 5 μM) is 25%. Besides, in test [2], the inhibition at 0.1 µM worked out at 0% and the inhibition at 5 µM was found to be 10%.
In the case of `CC(C(=O)NCc1ccc(C(C)(C)C)cc1)c1ccc2nc(N)sc2c1` (stereo not shown) [Example 51, 2-(2-aminobenzo[d]thiazol-6-yl)-N-(4-tert.-butylbenzyl)propanamide], the inhibition at 0.1 µM in test [1] (compound 0.1 μM, read-out: IC50 (Human) following pH-stimulus: inhibition (in percent) @ 0.1 μM) turned out to be 10%; in test [2], 3%. Further, the “IC50 (Human) following pH-stimulus: inhibition (in percent) @ 5 μM” value in test [1] (compound 5 μM, 5 µM) is recorded as 27% @ 5. Moreover, the inhibition at 5 µM in test [1] (compound 5 μM) was 39%.
As to `CC1CCN(c2nc(C(F)(F)F)ccc2CNC(=O)C(C)c2ccc3nc(N)sc3c2)CC1` (stereo not shown) [Example 52, 2-(2-aminobenzo[d]thiazol-6-yl)-N-((2-(4-methylpiperidin-1-yl)-6-(trifluoromethyl)pyridin-3-yl)methyl)propanamide], the “IC50 (Human) following pH-stimulus” value in test [1] is on record as “Ne”. Also, in test [2], the inhibition at 0.1 µM came to 5%.
With `CC1CCN(c2nc(C(C)(C)C)ccc2CNC(=O)C(C)c2ccc3nc(NC(=O)OC(C)(C)C)sc3c2)CC1` (stereo not shown) [Example 55, tert-butyl 6-(1-((6-tert-butyl-2-(4-methylpiperidin-1-yl)pyridin-3-yl)methylamino)-1-oxopropan-2-yl)benzo[d]thiazol-2-ylcarbamate], the inhibition at 1 µM in test [1] was determined as 5%. The inhibition at 5 µM in test [1] (compound 5 μM) was determined as 27%; in test [2], 12%.
For `CC1CCN(c2nc(C(C)(C)C)ccc2CNC(=O)C(C)c2ccc3nc(N)sc3c2)CC1` (stereo not shown) [Example 56, 2-(2-aminobenzo[d]thiazol-6-yl)-N-((6-tert-butyl-2-(4-methylpiperidin-1-yl)pyridin-3-yl)methyl)propanamide], the inhibition at 5 µM in test [1] (compound 5 μM) came to 2%. For the same compound, the inhibition at 10 µM in test [1] worked out at 12%. In test [2], this compound displayed a Ki of 18.7 nM.
For `CC(C(=O)NCc1ccc(C(C)(C)C)cc1)c1ccc2nc(NS(C)(=O)=O)sc2c1` (stereo not shown) [Example 57, N-(4-tert-butylbenzyl)-2-(2-(methylsulfonamid)benzo[d]thiazol-6-yl)propanamide] the same measures were 3%, 32% and 32.8 nM.
